These results are taken from patent US7238701B2, “Substituted tetrahydrobenzothienopyrimidinamine compounds useful for treating hyper-proliferative disorders” (Bayer Pharmaceuticals Corporation, priority 2003, dated 2007).

Experiment [1] deals with A431cells (human epidermoid carcinoma). The experiment is described as follows: In vitro tumor cell proliferation assay (Cell Titer-Glo luminescent cell viability), A431 cells. Format: cell-based. Conditions: A-431, 72 h, 72 hours drug exposure, 10% Fetal Bovine Serum, ATP luminescence readout, read-out: IC50 (50% inhibition of cell proliferation). The essentials:
(§1)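 ATP luminescence (CellTiter-Glo) measured proliferation after 72 h compound exposure at 37 °C, giving IC50 values. Serial dilutions spanning 64 pM–100 μM in 0.1% DMSO were applied one day after plating 2.5×10^3 cells/well in RPMI plus 10% fetal bovine serum.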
In general terms: ATP-based viability assays read luminescence as a measure of living cells.

Experiment [2] concerns BT474 (human breast carcinoma). The experiment can be described thus: In vitro tumor cell proliferation assay (Cell Titer-Glo luminescent cell viability), BT474 cells. It is filed as cell-based. Conditions: BT-474, 72 hours drug exposure, 10% Fetal Bovine Serum, ATP luminescence readout, read-out: IC50 (50% inhibition of cell proliferation). The essentials:
as §1

The structures appear in SMILES notation.

For `OCCC1CCc2c(sc3ncnc(Nc4cccc(Br)c4)c23)C1` (centres unmarked) [Example 102, 2-{4-[(3-bromophenyl)amino]-5,6,7,8-tetrahydro[1]benzothieno[2,3-d]pyrimidin-7-yl}ethanol], the IC50 in experiment [1] and in experiment [2] was under 50 µM each time.

Consider `O=C(CC1CCc2c(sc3ncnc(Nc4cccc(Br)c4)c23)C1)N1CCN(Cc2ccncc2)CC1` (centres unmarked) [Example 103, N-(3-bromophenyl)-7-{2-oxo-2-[4-(4-pyridinylmethyl)-1-piperazinyl]ethyl}-5,6,7,8-tetrahydro[1]benzothieno[2,3-d]pyrimidin-4-amine], for which the IC50 was under 50 µM in experiment [1] and under 5 µM in experiment [2].

As to `CN1CCN(C(=O)CC2CCc3c(sc4ncnc(Nc5ccc(Br)cc5F)c34)C2)CC1` (centres unmarked) [Example 105, N-(4-bromo-2-fluorophenyl)-7-[2-(4-methyl-1-piperazinyl)-2-oxoethyl]-5,6,7,8-tetrahydro[1]benzothieno[2,3-d]pyrimidin-4-amine], the IC50 in experiment [1] and in experiment [2] was under 5 µM throughout.

With `CCOC(=O)CC1CCc2c(sc3ncnc(Nc4ccc(OCc5cccc(F)c5)c(Cl)c4)c23)C1` (centres unmarked) [Example 136, {4-[3-Chloro-4-(3-fluoro-benzyloxy)-phenylamino]-5,6,7,8-tetrahydro-benzo[4,5]thieno[2,3-d]pyrimidin-7-yl}-acetic acid ethyl ester], the IC50 is under 50 µM in experiment [1] and under 5 µM in experiment [2].

As for `OCCC1CCc2c(sc3ncnc(Nc4ccc(OCc5cccc(F)c5)c(Cl)c4)c23)C1` (centres unmarked) [Example 137, 2-{4-[3-Chloro-4-(3-fluoro-benzyloxy)-phenylamino]-5,6,7,8-tetrahydro-benzo[4,5]thieno[2,3-d]pyrimidin-7-yl}-ethanol], the IC50 in experiment [1] was under 50 µM; in experiment [2], under 5 µM.

Take `Fc1cccc(COc2ccc(Nc3ncnc4sc5c(c34)CCC(CCBr)C5)cc2Cl)c1` (centres unmarked) [Example 138, [7-(2-Bromo-ethyl)-5,6,7,8-tetrahydro-benzo[4,5]thieno[2,3-d]pyrimidin-4-yl]-[3-chloro-4-(3-fluoro-benzyloxy)-phenyl]-amine]: the IC50 is under 50 µM in experiment [1] and under 5 µM in experiment [2].

Take `Fc1cccc(COc2ccc(Nc3ncnc4sc5c(c34)CCC(CCN3CCOCC3)C5)cc2Cl)c1` (centres unmarked) [Example 139, N-{3-chloro-4-[(3-fluorobenzyl)oxy]phenyl}-7-(2-morpholin-4-ylethyl)-5,6,7,8-tetrahydro[1]benzothieno[2,3-d]pyrimidin-4-amine]: the IC50 in experiment [1] and in experiment [2] was under 5 µM each time.

Regarding `CN(C)[C@H]1CCN(CCC2CCc3c(sc4ncnc(Nc5ccc(OCc6cccc(F)c6)c(Cl)c5)c34)C2)C1` (stereo partly drawn) [Example 140, N-{3-chloro-4-[(3-fluorobenzyl)oxy]phenyl}-7-{2-[(3S)-3-(dimethylamino)pyrrolidin-1-yl]ethyl}-5,6,7,8-tetrahydro[1]benzothieno[2,3-d]pyrimidin-4-amine], the IC50 in experiment [1] and in experiment [2] was under 5 µM throughout.

In the case of `CN(C)[C@H]1CCN(CCC2CCc3c(sc4ncnc(Nc5ccc(OCc6ccccn6)c(Cl)c5)c34)C2)C1` (stereo partly drawn) [Example 141, N-[3-chloro-4-(pyridin-2-ylmethoxy)phenyl]-7-{2-[(3S)-3-(dimethylamino)pyrrolidin-1-yl]ethyl}-5,6,7,8-tetrahydro[1]benzothieno[2,3-d]pyrimidin-4-amine], the IC50 in experiment [1] and in experiment [2] was under 5 µM in each case.

In the case of `COCCNCCC1CCc2c(sc3ncnc(Nc4ccc(OCc5cccc(F)c5)c(Cl)c4)c23)C1` (centres unmarked) [Example 142, N-{3-chloro-4-[(3-fluorobenzyl)oxy]phenyl}-7-{2-[(2-methoxyethyl)amino]ethyl}-5,6,7,8-tetrahydro[1]benzothieno[2,3-d]pyrimidin-4-amine], the IC50 in experiment [1] and in experiment [2] was under 5 µM throughout.

With `CCOC(=O)CC1CCc2c(sc3ncnc(Nc4ccc(OCc5ccc(F)cc5)c(Cl)c4)c23)C1` (centres unmarked) [Example 143, ethyl [4-({3-chloro-4-[(4-fluorobenzyl)oxy]phenyl}amino)-5,6,7,8-tetrahydro[1]benzothieno[2,3-d]pyrimidin-7-yl]acetate], the IC50 in experiment [1] is under 50 µM; in experiment [2], under 5 µM.

For the molecule `O=C(CC1CCc2c(sc3ncnc(Nc4ccc(OCc5ccc(F)cc5)c(Cl)c4)c23)C1)N1CCOCC1` (centres unmarked) [Example 144, N-{3-chloro-4-[(4-fluorobenzyl)oxy]phenyl}-7-(2-morpholin-4-yl-2-oxoethyl)-5,6,7,8-tetrahydro[1]benzothieno[2,3-d]pyrimidin-4-amine], the IC50 in experiment [1] and in experiment [2] was under 50 µM each time.

In the case of `COCCNC(=O)CC1CCc2c(sc3ncnc(Nc4ccc(OCc5ccc(F)cc5)c(Cl)c4)c23)C1` (centres unmarked) [Example 146, 2-[4-({3-chloro-4-[(4-fluorobenzyl)oxy]phenyl}amino)-5,6,7,8-tetrahydro[1]benzothieno[2,3-d]pyrimidin-7-yl]-N-(2-methoxyethyl)acetamide], the IC50 in experiment [1] and in experiment [2] was under 50 µM in each case.

For `CS(=O)(=O)CCNC(=O)CC1CCc2c(sc3ncnc(Nc4ccc(OCc5ccc(F)cc5)c(Cl)c4)c23)C1` (centres unmarked) [Example 147, 2-[4-({3-chloro-4-[(4-fluorobenzyl)oxy]phenyl}amino)-5,6,7,8-tetrahydro[1]benzothieno[2,3-d]pyrimidin-7-yl]-N-[2-(methylsulfonyl)ethyl]acetamide], the IC50 in experiment [1] and in experiment [2] was under 50 µM throughout.

Consider `CN(C)[C@H]1CCN(C(=O)CC2CCc3c(sc4ncnc(Nc5ccc(OCc6ccc(F)cc6)c(Cl)c5)c34)C2)C1` (stereo partly drawn) [Example 148, N-{3-chloro-4-[(4-fluorobenzyl)oxy]phenyl}-7-{2-[(3S)-3-(dimethylamino)pyrrolidin-1-yl]-2-oxoethyl}-5,6,7,8-tetrahydro[1]benzothieno[2,3-d]pyrimidin-4-amine], for which the IC50 in experiment [1] and in experiment [2] was under 5 µM throughout.

`O=C(CC1CCc2c(sc3ncnc(Nc4ccc(OCc5ccc(F)cc5)c(Cl)c4)c23)C1)N1CCCC1` (centres unmarked) [Example 149, N-{3-chloro-4-[(4-fluorobenzyl)oxy]phenyl}-7-(2-oxo-2-pyrrolidin-1-ylethyl)-5,6,7,8-tetrahydro[1]benzothieno[2,3-d]pyrimidin-4-amine]: the IC50 in experiment [1] and in experiment [2] was under 50 µM throughout.

With `CN1CCN(C(=O)CC2CCc3c(sc4ncnc(Nc5ccc(OCc6ccc(F)cc6)c(Cl)c5)c34)C2)CC1` (centres unmarked) [Example 150, N-{3-chloro-4-[(4-fluorobenzyl)oxy]phenyl}-7-[2-(4-methylpiperazin-1-yl)-2-oxoethyl]-5,6,7,8-tetrahydro[1]benzothieno[2,3-d]pyrimidin-4-amine], the IC50 in experiment [1] and in experiment [2] was under 5 µM each time.

Take `COCCN(C)C(=O)CC1CCc2c(sc3ncnc(Nc4ccc(OCc5ccc(F)cc5)c(Cl)c4)c23)C1` (centres unmarked) [Example 151, 2-[4-({3-chloro-4-[(4-fluorobenzyl)oxy]phenyl}amino)-5,6,7,8-tetrahydro[1]benzothieno[2,3-d]pyrimidin-7-yl]-N-(2-methoxyethyl)-N-methylacetamide]: the IC50 in experiment [1] and in experiment [2] was under 50 µM in each case.

On to `COCCN(C)CCC1CCc2c(sc3ncnc(Nc4ccc(OCc5ccc(F)cc5)c(Cl)c4)c23)C1` (centres unmarked) [Example 152, N-{3-chloro-4-[(4-fluorobenzyl)oxy]phenyl}-7-{2-[(2-methoxyethyl)(methyl)amino]ethyl}-5,6,7,8-tetrahydro[1]benzothieno[2,3-d]pyrimidin-4-amine], for which the IC50 in experiment [1] and in experiment [2] was under 5 µM throughout.

Turning to `Fc1ccc(COc2ccc(Nc3ncnc4sc5c(c34)CCC(CCN3CCCC3)C5)cc2Cl)cc1` (centres unmarked) [Example 153, N-{3-chloro-4-[(4-fluorobenzyl)oxy]phenyl}-7-(2-pyrrolidin-1-ylethyl)-5,6,7,8-tetrahydro[1]benzothieno[2,3-d]pyrimidin-4-amine], the IC50 in experiment [1] and in experiment [2] was under 5 µM each time.

In the case of `CN1CCN(CCC2CCc3c(sc4ncnc(Nc5ccc(OCc6ccc(F)cc6)c(Cl)c5)c34)C2)CC1` (centres unmarked) [Example 154, N-{3-chloro-4-[(4-fluorobenzyl)oxy]phenyl}-7-[2-(4-methylpiperazin-1-yl)ethyl]-5,6,7,8-tetrahydro[1]benzothieno[2,3-d]pyrimidin-4-amine], the IC50 in experiment [1] and in experiment [2] was under 5 µM throughout.

As to `CN(C)[C@H]1CCN(CCC2CCc3c(sc4ncnc(Nc5ccc(OCc6ccc(F)cc6)c(Cl)c5)c34)C2)C1` (stereo partly drawn) [Example 157, N-{3-chloro-4-[(4-fluorobenzyl)oxy]phenyl}-7-{2-[(3S)-3-(dimethylamino)pyrrolidin-1-yl]ethyl}-5,6,7,8-tetrahydro[1]benzothieno[2,3-d]pyrimidin-4-amine], the IC50 in experiment [1] and in experiment [2] was under 5 µM in each case.

As for `CN1CCN(CCC2CCc3c(sc4ncnc(Nc5ccc(OCc6cccc(F)c6)c(Cl)c5)c34)C2)CC1` (centres unmarked) [Example 158, N-{3-chloro-4-[(3-fluorobenzyl)oxy]phenyl}-7-[2-(4-methylpiperazin-1-yl)ethyl]-5,6,7,8-tetrahydro[1]benzothieno[2,3-d]pyrimidin-4-amine], the IC50 in experiment [1] and in experiment [2] was under 5 µM in each case.

For `COCCN(C)CCC1CCc2c(sc3ncnc(Nc4ccc(OCc5cccc(F)c5)c(Cl)c4)c23)C1` (centres unmarked) [Example 159, N-{3-chloro-4-[(3-fluorobenzyl)oxy]phenyl}-7-{2-[(2-methoxyethyl)(methyl)amino]ethyl}-5,6,7,8-tetrahydro[1]benzothieno[2,3-d]pyrimidin-4-amine], the IC50 in experiment [1] and in experiment [2] was under 5 µM each time.

On to `CN(C)[C@@H]1CCN(CCC2CCc3c(sc4ncnc(Nc5ccc(OCc6cccc(F)c6)c(Cl)c5)c34)C2)C1` (some centres unmarked) [Example 160], for which the IC50 in experiment [1] and in experiment [2] was under 5 µM in each case.
